In article PMC11395096, “Study of Pentacyclic Triterpenes from Lyophilised Aguaje: Anti-Inflammatory and Antioxidant Properties” (International Journal of Molecular Sciences, 2024):
pEC50, pIC50: −log10 of the molar value. Where a name gives a salt, the structure may show the parent alone.

Columns and labels:
[1] = tested on: Nrf2; assay: Nrf2 activation assay, value not assigned to one cell line; type: cell-based, Mus musculus; conditions: for pEC50: compounds series
Protocol: (§1) To determine the antioxidant response of the samples (at the same concentration as in the viability assay), the Nrf2 activation assay was used following the protocol carried out by Apaza Ticona et al.. Cells were cultured in 96-well plates (1 × 10^4 cells per well). […] Absorbance was measured at 540 nm using a microplate reader.

[2] = tested on: Nrf2; assay: Nrf2 activation assay, RAW 264.7 cells; type: cell-based, Mus musculus; conditions: RAW 264.7, 72 h, read-out: Activation of Nrf2 production EC50; for pEC50: compounds series
Excerpt: (§2) The IC-21 (Mus musculus macrophage cells, TIB-186) and RAW 264.7 (Mus musculus macrophage cells, TIB-71) cell lines used in this study were obtained from the American Type Culture Collection (ATCC, Manassas, VA, USA). The selection of IC-21 and RAW 264.7 cell lines for studies on inflammation and antioxidant activity is based on two main reasons: the cell type and their origin. Firstly, both IC-21 and RAW 264.7 cell lines are macrophages, which play a crucial role in the immune system, being essential for the inflammatory response and regulation of oxidative stress. These cells have the capacity to produce pro-inflammatory cytokines, express transcription factors such as NF-κB, and generate NO, making them ideal models to understand inflammatory mechanisms. Moreover, macrophages are involved in the activation of Nrf2, a transcription factor critical for the antioxidant response, allowing these cell lines to enable a comprehensive assessment of antioxidant activity within an inflammatory context.
(§3) Stock solutions of the samples (extracts and compounds) were prepared at a concentration of 1 mM using dimethyl sulfoxide (DMSO ≥ 99.9% Sigma-Aldrich, CAS No. 67-68-5, St. Louis, MO, USA) as the solvent. Dilutions from these stock solutions were then made to achieve concentrations between 100 and 0.20 μg mL^−1 or μM in the culture medium, which contained 0.5% DMSO. A control group consisting only of the culture medium with 0.5% DMSO was also included to determine its potential cytotoxicity.
(§4) The 50% cytotoxic concentration (CC50), 50% inhibitory concentration (IC50), and half-maximal effective concentration (EC50) values were calculated using the sigmoidal dose–response function. All experiments were conducted in triplicate, and the data obtained were expressed as the mean and standard deviation. A two-way analysis of variance (ANOVA) combined with Dunnett’s multiple comparisons test (p < 0.001) was performed for the cytotoxicity, NF-κB inhibition, NO inhibition and Nrf2 activation assays, while a one-way ordinary ANOVA combined with Dunnett’s multiple comparisons test (p < 0.001) was conducted for the SOD assay. All statistical analyses were performed using GraphPad Prism version 10.0.0 (La Jolla, CA, USA, www.graphpad.com, accessed on 28 August 2024).
as §1

[3] = tested on: Nrf2; assay: Nrf2 activation assay, IC-21 cells; type: cell-based; conditions: Mus musculus, 72 h, IC-21, 72 h, read-out: Activation of Nrf2 production EC50; for pEC50: compounds series
Excerpt: as §2, §3, §4, §1

[4] = tested on: NF-κB; assay: NF-κB inhibition assay, value not assigned to one cell line; type: cell-based; conditions: Mus musculus
Protocol: (§5) To assess the anti-inflammatory potential of the samples at the same concentrations used in the cell viability assay, an NF-κB inhibition assay was used following the approach established by Apaza Ticona et al.. Cells were seeded in 96-well plates at a density of 3 × 10^3 cells per well. […] Absorbance was quantified at 450 nm using a microplate reader.

[5] = biological target: Superoxide Dismutase (SOD); assay: SOD activation assay (kit); type: biochemical; conditions: 72 h; for pEC50: compounds series
Protocol: as §4
To determine the antioxidant response of the samples (at the same concentration as in the viability assay), the SOD activation assay kit (Sigma-Aldrich, CAS No. MAK528, St. Louis, MO, USA) was used, implementing the protocol adapted from Vincent et al.. […] Absorbance was measured at 450 nm using a microplate reader.

[6] = tested on: NO production; assay: NO inhibition assay, value not assigned to one cell line; type: cell-based; conditions: Mus musculus; for pIC50: RAW264.7, across IC-21 and RAW 264.7 / cell line not given, compounds series
Protocol: (§6) To determine the anti-inflammatory activity of the samples (at the same concentration as in the viability assay), the […] was used, implementing the protocol adapted from Guo et al.. Cells were cultured in 96-well plates (1 × 10^4 cells per well). […] Absorbance was measured at 540 nm using a microplate reader.

[7] = tested on: NO production; assay: NO inhibition assay, LPS-stimulated RAW 264.7 cells; type: cell-based, Mus musculus; conditions: RAW 264.7, + LPS 100 μg mL^−1, 72 h; for pIC50: compounds series
Excerpt: as §2, §3, §4, §6

[8] = tested on: NO production; assay: NO inhibition assay, LPS-stimulated IC-21 cells; type: cell-based, Mus musculus; conditions: IC-21, + LPS 100 μg mL^−1, 72 h; for pIC50: compounds series
Excerpt: as §2, §3, §4, §6

[9] = tested on: NF-κB; assay: NF-κB inhibition assay, LPS-stimulated RAW 264.7 cells; type: cell-based, Mus musculus; conditions: RAW 264.7, + LPS 100 μg mL^−1, 72 h; for pIC50: compounds series, read-out: Inhibition of NF-κB production IC50
Excerpt: as §2, §3, §4, §5

[10] = NR (neutral red) viability assay, IC-21 cells; type: cell-based, Mus musculus; conditions: mouse, IC-21 macrophage cells, IC-21, 72 h, compounds series
Excerpt: as §2
(§7) Cultivated in a Roswell Park Memorial Institute (RPMI) 1640 medium (RPMI 1640 Sigma-Aldrich, CAS No. R7755, St. Louis, MO, USA) supplemented with 2 mM L-glutamine (≥99% Sigma-Aldrich, CAS No. 56-85-9, St. Louis, MO, USA), 10% foetal bovine serum (FBS Sigma-Aldrich, CAS No. TMS-016, St. Louis, MO, USA), and 10,000 units of penicillin and 10 mg streptomycin mL^−1 (Sigma-Aldrich, CAS No. P4333, St. Louis, MO, USA) in culture flasks, the cells were maintained in an incubator under normoxic conditions (20–21% O2) and a humidified atmosphere (5% CO2, at 37 °C).
as §3, §4
(§8) Cell viability was evaluated using a colorimetric assay in 96-well plates, employing 3-amino-7-dimethylamino-2-methylphenazine hydrochloride salt reagent (NR, Sigma-Aldrich, CAS No. 553-24-2, St. Louis, MO, USA). ACTD (≥95% Sigma-Aldrich, CAS No. 50-76-0, St. Louis, MO, USA) was used as a positive control, with a CC50 value of 0.01 μg mL^−1 for the extracts, or 0.008 μM for the compounds. The IC-21 and RAW 264.7 cell lines were cultured in 96-well plates at 37 °C with 5% CO2 until >90% confluency was achieved (1 × 10^4 cells per well). Subsequently, the cultures were treated with sample dilutions (100–0.20 μg mL^−1 or μM) for 72 h at 37 °C with 5% CO2 in phenol red-free RPMI. The supernatant was then discarded, and the cells were washed with phosphate-buffered saline (PBS) before being incubated with […] NR (50 μg mL^−1; 173 μM) for 3 h at 37 °C with 5% CO2. NR labelling was performed after DMSO treatment. […]

[11] = tested on: IC-21 cell line; assay: NR (neutral red) viability assay, IC-21 cells; type: cell-based, Mus musculus; conditions: IC-21, 72 h, compounds series
Excerpt: as §2, §7, §3, §4, §8

[12] = tested on: RAW 264.7 cell line; assay: NR (neutral red) viability assay, RAW 264.7 cells; type: cell-based, Mus musculus; conditions: RAW 264.7, 72 h, compounds series
Excerpt: as §2, §7, §3, §4, §8

[13] = NR (neutral red) viability assay, RAW 264.7 cells; type: cell-based, Mus musculus; conditions: mouse, RAW 264.7 macrophage cells, RAW 264.7, 72 h, compounds series
Excerpt: as §2, §7, §3, §4, §8

[14] = tested on: NF-κB; assay: NF-κB inhibition assay, LPS-stimulated IC-21 cells; type: cell-based, Mus musculus; conditions: IC-21, + LPS 100 μg mL^−1, 72 h; for pIC50: compounds series, read-out: Inhibition of NF-κB production IC50
Excerpt: as §2, §3, §4, §5

[15] = tested on: NF-κB; set-up: method as in PMID 24853120, PMID 15668926; conditions: cited from earlier work
[16] = Mus musculus, RAW264.7, across IC-21 and RAW 264.7 / cell line not stated
[17] = Mus musculus, RAW264.7, 72 h, extracts series

Compound	pEC50 ([2]; Mus musculus, RAW264.7, 72 h)	pEC50 [3]	pEC50 [5]	pIC50 ([7]; Mus musculus, RAW264.7, 72 h)	pIC50 ([8]; Mus musculus, 72 h)	pIC50 ([9]; Mus musculus, RAW264.7, 72 h)	CC50 at 72 h [10] [µM]	CC50 [12] [µM]	CC50 at 72 h [13] [µM]	pIC50 ([14]; Mus musculus, 72 h)	further results
COC(=O)[C@]12CCC(C)(C)C[C@H]1[C@H]1C(=O)C=C3[C@@]4(C)C=C(C#N)C(=O)C(C)(C)[C@@H]4CC[C@@]3(C)[C@]1(C)CC2 [CDDO-Me, bardoxolone methyl, reference compound]	9.89	10.05									pEC50 [1, 16]: 9.89 to 10.05; EC50 ([1]; Mus musculus, cell line not stated, extracts series): 0.07 ng/mL; pEC50 ([1]; across IC-21 and RAW 264.7 / cell line not given): 9.96; EC50 [2, 17]: 0.08 ng/mL; EC50 ([3]; extracts series): 0.05 ng/mL
CC1=C(O)C(=O)C=C2C1=CC=C1[C@@]2(C)CC[C@@]2(C)[C@@H]3C[C@](C)(C(=O)O)CC[C@]3(C)CC[C@]12C [CEL, celastrol]											pIC50 ([4]; RAW264.7, read-out: NF-κB inhibition IC50): 5.13; IC50 ([4]; read-out: NF-κB inhibition IC50): 3.34 µg/mL
O=C(O)c1cc(O)c(O)c(O)c1 [GA, gallic acid, reference compound]			4.92								SOD activation EC50 ([5]; extracts series): 2.06 µg/mL
[H]/N=C(/NC)NCCC[C@H](N)C(=O)O [LNMMA, N^G-methyl-L-arginine acetate salt]				5.17	5.19						pIC50 [6]: 5.18; IC50 ([6]; cell line not stated, extracts series): 1.61 µg/mL; IC50 [7, 17]: 1.64 µg/mL; IC50 ([8]; Mus musculus, 72 h, extracts series): 1.57 µg/mL
C[C@H]1[C@H](C)CC[C@]2(C(=O)O)CC[C@]3(C)C(=CC(=O)[C@@H]4[C@@]5(C)CCC(=O)C(C)(C)[C@@H]5CC[C@]43C)[C@H]12 [compound 1, 3,11-dioxours-12-en-28-oic acid]	6.26	6.61	5.73	5.18	5.32	5.09	67.6	75.4	75.4	5.13	pEC50 [1, 16]: 6.26 to 6.61; pEC50 [2]: 6.26; CC50 [11]: 67.6 µM; pIC50 ([4]; RAW264.7, across IC-21 and RAW 264.7 / cell line not given, compounds series, read-out: NF-κB inhibition IC50): 5.09 to 5.13; pIC50 [6]: 5.18 to 5.32
CC(=O)O[C@H]1CC[C@]2(C)[C@H]3C(=O)C=C4[C@@H]5[C@@H](C)[C@H](C)CC[C@]5(C(=O)O)CC[C@@]4(C)[C@]3(C)CC[C@H]2C1(C)C [compound 2, (3β)-3-acetyloxy-11-oxours-12-en-28-oic acid]	6.11	6.28	5.13	4.81	4.95	4.70	78.5	84.9	84.9	4.87	
C[C@H]1[C@H](C)CC[C@]2(C(=O)O)CC[C@]3(C)C(=CC(=O)[C@@H]4[C@@]5(C)CC[C@H](O)C(C)(C)[C@@H]5CC[C@]43C)[C@H]12 [compound 3, (3β)-3-hydroxy-11-oxours-12-en-28-oic acid]	5.94	5.99	4.88	4.61	4.78	4.57	88.5	92.4	92.4	4.68	CC50 [11]: 88.5 µM
COc1cc(/C=C/C(=O)CC(=O)/C=C/c2ccc(O)c(OC)c2)ccc1O [curcumin]											concentration capable of inhibiting NF-κB activation [15]: 10 to 50 µM
O=c1c(O)c(-c2ccc(O)c(O)c2)oc2cc(O)cc(O)c12 [quercetin]											concentration capable of inhibiting NF-κB activation [15]: 25 to 100 µM
lipopolysaccharide [LPS, reference compound]											pIC50 [9]: 4.00; Inhibition of NF-κB production IC50 ([9]; extracts series): 98.7 µg/mL; pIC50 [7]: 4.01; Inhibition of NO production IC50 ([7]; extracts series): 97.2 µg/mL; pIC50 [8]: 4.01; Inhibition of NO production IC50 ([8]; extracts series): 95.2 µg/mL; pIC50 [14]: 4.02; Inhibition of NF-κB production IC50 ([14]; extracts series): 97.5 µg/mL
